Test results as given in patent US7985755B2, “2,4-diaminoquinazolines for spinal muscular atrophy” (Families of Spinal Muscular Atrophy, priority 2006, dated 2011).
Read-outs that look alike come from different tables or passages of the source.

Legend:
[1] = system: SMN2 promoter; test: SMN2 promoter assay in NSC-34 cells (β-lactamase reporter); type: cell-based, mouse; details: read-out: Promoter Assay EC50
In short: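 Compounds were tested for SMN2 promoter activation in NSC-34 cells, a mouse spinal cord–neuroblastoma hybrid line. The cells carry a plasmid in which a 3.4 kb SMN2 promoter fragment drives β-lactamase expression. CCF2-AM enters the cells and is converted by cytoplasmic esterase into an active β-lactamase substrate. Fold induction relative to vehicle (DMSO) control reflects the amount of β-lactamase made and therefore promoter activation.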

[2] = molecular target: T1, Human, recombinant dihydrofolate reductase (Homo sapiens, UniProt P00374); test: Human DHFR assay; type: biochemical
T1 construct: purchased Sigma D6566
T1 sequence (P00374 1-187): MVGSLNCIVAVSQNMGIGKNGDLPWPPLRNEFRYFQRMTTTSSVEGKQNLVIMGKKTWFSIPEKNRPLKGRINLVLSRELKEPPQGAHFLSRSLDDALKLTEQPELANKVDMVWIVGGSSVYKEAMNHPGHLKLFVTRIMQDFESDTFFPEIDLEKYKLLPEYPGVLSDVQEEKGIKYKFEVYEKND
Experimental: The assay is an adaptation for 96-well plate format from Appleman et al. (Appleman, J R; Howell, E E; Kraut, J; Kuhl, M and Blakley, R L (1988) J. Biol. Chem. 263, 9187-9198). Human, recombinant dihydrofolate reductase (Sigma, D6566) was incubated along with test compounds ([…]) and NADPH (Sigma, N-7505) in 96-well plates. After a 10 min. pre-incubation at room temperature, dihydrofolic acid (Sigma, D7006) was added and the kinetic traces at 340 nm measured on a Spectra Max 190 plate reader at room temperature. Reaction rates were determined from the slopes of the linear portions of the progress curves. The final assay conditions were 0.014 units DHFR, 300 μM NADPH, 30 μM Dihydrofolic acid, 50 mM TRIS, pH 7.6, 100 mM NaCl and 1.25% DMSO. Each compound was measured in duplicates on every assay plate. Each assay plate contained 12 positive controls (DMSO only) and 12 negative controls (no dihydrofolic acid). All data was percent normalized with respect to controls and presented as percent inhibition. Inhibition data was analyzed using Prism and fit to a standard 4-parameter logistic equation to calculate IC50 values.

[3] = system: SMN2 gene; details: cultured cells taken from patients with SMA type I; cited from earlier work
[4] = Mus musculus, Table 2, SMN2 promoter driving β-lactamase
[5] = Mus musculus, Table 5, SMN2 promoter driving β-lactamase

Row | EC50 [1, 5] | IC50 ([2]; Table 5, read-out: hDHFR IC50) | Structure (SMILES) | further results
1 | – | – | Nc1nc(N)c2c(OC[C@H]3CC[C@H](Cc4ccccc4Cl)CC3)cccc2n1 [Example-164, 5-[4-(2-Chlorobenzyl)cyclohexylmethoxy]quinazoline-2,4-diamine] | EC50 [1, 4]: < 1000 nM; IC50 ([2]; Table 2, read-out: hDHFR IC50): > 100 µM
2 | – | – | Nc1nc(N)c2c(OCC3CCN(CC(F)(F)F)CC3)cccc2n1 [Example-165] | EC50 ([1]; Table 3, SMN2 promoter driving β-lactamase): < 1000 nM; IC50 ([2]; Table 3, read-out: hDHFR IC50): > 100 µM
3 | – | – | COc1ccccc1CC1CCC(COc2cccc3nc(N)nc(N)c23)CC1 (stereo not shown) [Example-168, 5-[4-(2-Methoxybenzyl)-cyclohexylmethoxy]quinazoline-2,4-diamine] | EC50 [1, 4]: < 1000 nM; IC50 ([2]; Table 2, read-out: hDHFR IC50): < 20 µM
4 | < 1000 nM | < 20 µM | Nc1nc(N)c2c(OCCN3CCN(S(=O)(=O)c4ccccc4F)CC3)cccc2n1 [Example-206, 5-{2-[4-(2-Fluoro-benzenesulfonyl)-piperazin-1-yl]-ethoxy}-quinazoline-2,4-diamine] | –
5 | < 1000 nM | 20 to 100 µM | Nc1nc(N)c2c(OCCN3CCN(C(=O)c4ccc(F)cc4F)CC3)cccc2n1 [Example-207, {4-[2-(2,4-Diamino-quinazolin-5-yloxy)-ethyl]-piperazin-1-yl}-(2,4-difluoro-phenyl)-methanone] | –
6 | < 1000 nM | < 20 µM | Nc1nc(N)c2c(OCCN3CCN(C(=O)c4ccc5c(c4)OCO5)CC3)cccc2n1 [Example-208, Benzo[1,3]dioxol-5-yl-{4-[2-(2,4-diamino-quinazolin-5-yloxy)-ethyl]-piperazin-1-yl}-methanone] | –
7 | < 1000 nM | < 20 µM | Nc1nc(N)c2c(OCCN3CCN(S(=O)(=O)c4ccccc4)CC3)cccc2n1 [Example-209, 5-[2-(4-Benzenesulfonyl-piperazin-1-yl)-ethoxy]-quinazoline-2,4-diamine] | –
8 | < 1000 nM | < 20 µM | Nc1nc(N)c2c(OCCN3CCN(S(=O)(=O)c4ccc(F)cc4F)CC3)cccc2n1 [Example-210, 5-{2-[4-(2,4-Difluoro-benzenesulfonyl)-piperazin-1-yl]-ethoxy}-quinazoline-2,4-diamine] | –
9 | < 1000 nM | < 20 µM | Nc1nc(N)c2c(OCCN3CCN(S(=O)(=O)c4ccc(Cl)c(Cl)c4)CC3)cccc2n1 [Example-211, 5-{2-[4-(3,4-Dichloro-benzenesulfonyl)-piperazin-1-yl]-ethoxy}-quinazoline-2,4-diamine] | –
10 | < 1000 nM | < 20 µM | Nc1nc(N)c2c(OCCN3CCN(C(=O)c4ccc(Cl)c(Cl)c4)CC3)cccc2n1 [Example-212, {4-[2-(2,4-Diamino-quinazolin-5-yloxy)-ethyl]-piperazin-1-yl}-(3,4-dichloro-phenyl)-methanone] | –
11 | < 1000 nM | < 20 µM | Nc1nc(N)c2c(OCCN3CCN(C(=O)c4ccccc4)CC3)cccc2n1 [Example-213, {4-[2-(2,4-Diamino-quinazolin-5-yloxy)-ethyl]-piperazin-1-yl}-phenyl-methanone] | –
12 | – | < 20 µM | Nc1nc(N)c2c(OCCN3CCN(C(=O)c4ccc(Cl)cc4)CC3)cccc2n1 [Example-214, (4-Chloro-phenyl)-{4-[2-(2,4-diamino-quinazolin-5-yloxy)-ethyl]-piperazin-1-yl}-methanone] | EC50 ([1]; Table 5, SMN2 promoter driving β-lactamase): < 1000 nM
13 | < 1000 nM | < 20 µM | Nc1nc(N)c2c(OCCN3CCN(C(=O)c4ccccc4F)CC3)cccc2n1 [Example-215, {4-[2-(2,4-Diamino-quinazolin-5-yloxy)-ethyl]-piperazin-1-yl}-(2-fluoro-phenyl)-methanone] | –
14 | < 1000 nM | 20 to 100 µM | Nc1nc(N)c2c(OCCN3CCN(Cc4ccccc4F)CC3)cccc2n1 [Example-216, 5-{2-[4-(2-Fluoro-benzyl)-piperazin-1-yl]-ethoxy}-quinazoline-2,4-diamine] | –
15 | < 1000 nM | 20 to 100 µM | Nc1nc(N)c2c(OCCN3CCN(Cc4ccc(F)cc4F)CC3)cccc2n1 [Example-217, 5-{2-[4-(2,4-Difluoro-benzyl)-piperazin-1-yl]-ethoxy}-quinazoline-2,4-diamine] | –
16 | – | – | CCCC(CCC)C(=O)O [valproic acid] | increase in production of functional SMN protein [3]: 30 to 50%
